Results published in patent US6288110A, “Pharmaceutical compositions comprising disulfiram” (Yeda Research and Development Co Ltd., priority 1998, dated 2001).
“Also recorded” adds a separate entry of the source. Read-outs that look alike come from different tables or passages of the source.

Tests used:
[1] = test system: BALB/MK keratinocytes; test: DNA synthesis (3H-thymidine incorporation) in BALB/MK keratinocytes; format: cell-based, murine; settings: for IC (maximal): Mus musculus, Keratinocyte
Procedure: The BALB/MK epidermal keratinocyte cell line, kindly provided by Dr. S Aaronson (National Cancer Institute, Bethesda, Md., USA), was cultured (37° C., 10% CO2 humidified atmosphere) in calcium-free MEM (Beth Haemek, Israel) supplemented with 10% dialyzed FCS and murine EGF (5 ng/ml).
Bovine capillary endothelial cells (BCE) and bovine aortic BSMC were plated in 24-well plates (6000 cells per well) in 500 μl DMEM medium supplemented with 10% Colorado calf serum (CCS) (GIBCO, USA) and GPS. After 24 hours, medium was changed to starvation medium (2% CCS, 0.5% BSA, GPS) for 24 hours. ^3 H-methyl-thymidine (5 μCi/ml) was added for the last 6 hours. DNA synthesis assays were performed as described above, in triplicates. DNA synthesis assays in BALB/MK keratinocytes were performed as previously described (Marikovsky, 1995).-DNA synthesis assays were performed in triplicates.
Disulfiram was prepared in 0.1 mM stock solutions in DMSO. Control samples were incubated with the appropriate concentration of DMSO. Inhibition was calculated as percentage of DNA synthesis of control.
To determine whether disulfiram acts directly on endothelial cells rather than on accessory cells such as macrophages and mast cells that can be responsible for the development of an angiogenic response in vivo, the effect of the drug on the growth of BCE cells was examined in vitro as described in section (c) of "Materials and Methods" above. DNA synthesis in BCE cells was measured in presence of increasing concentrations of disulfiram incubated for 24 hours with the cells. […] Maximal inhibitory activity (80%) for BSMC was at 0.5-1 μM disulfiram, while maximal inhibitory activity for C6 glioma cells or BALB/MK keratinocytes was at concentrations 10 fold higher (2-3 μM) than those for endothelial cells (0.2-0.5 μM).
To examine the time course of the effect of disulfiram and whether the effect was reversible, cells were incubated with disulfiram for various periods of time (1, 2, 4 and 24 hours), then washed away and DNA synthesis was determined. One to 4 hours of exposure to disulfiram were enough to induce maximal inhibitory effect at concentrations ranging from 0.5 μM for BCE cells (FIG. 3A) to 5 μM for BALB/MK keratinocytes (FIG. 3C) and C6 glioma cells (FIG. 3D). […] BSMC were less sensitive as far as time course is concerned when incubated with 1 μM disulfiram. Following 4 hours of incubation with 1 μM disulfiram, DNA synthesis inhibition in BSMC reached only 50% (FIG. 3B). The data shown here indicate that the damage for capillary endothelial cells, following a short incubation of 1 to 2 hours, was maximal and that, at least in a time scale of 24 hours, this damage was non-reversible.

[2] = test system: BALB/MK keratinocytes; test: Apoptosis by FACS in BALB/MK keratinocytes; format: cell-based, murine; settings: 4 μM (not shown)
Procedure: Cells were cultured in plastic tissue culture dishes for 48 hours in presence of growth media as described above, until reaching 40-50% confluency. Disulfiram was then added to the cells for 20 hours. The cells were removed from the plates by EDTA-trypsin and fixed in ice-cold 70% ethanol (BioLab, Israel) in -20° C. for 2 hr to overnight. The fixed cells (2-5×10^6) were washed once with HEPES-buffered saline (HBSS) and incubated with 0.5 mg/ml RNAseH (Boehringer Mannheim). Afterwards the cells were resuspended in HBSS containing 50 μg/ml propidium iodide (Sigma) and subsequently analyzed on a FACSort flow cytometer (Beckton Dickinson Inc.) using Lysis II software. For the analysis, 10,000 cells were examined from each sample. The percentage of the hypodiploid cells was measured (Darzynkiewicz, 1992; Afanasyev, 1993). The cell cycle histogram was divided into four regions according to the cell cycle phases: Ap, apoptotic cells; G1, diploid cells; S, intermediate cells; and G2 /M, tetraploid cells.

[3] = test system: C6 glioma cells; test: Cell rounding, C6 glioma cells; format: cell-based, rat; settings: 2 μM
[4] = test system: BSMC; test: Cell rounding, BSMC; format: cell-based, bovine; settings: 5 μM
[5] = test system: C6 rat glioma cells; test: TUNEL assay for apoptosis, C6 rat glioma cells; format: cell-based; settings: 5 μM, 6 hours
Procedure: Cells were cultured on microscope slides for 48 hours in presence of growth media as described above, until reaching 40-50% confluency. Disulfiram was then added to the cells for 6 hours or for 20 hours in the case of BALB/MK keratinocytes, fixed with 4% paraformaldehyde and washed three times with PBS. Apoptosis was analyzed by the in situ TUNEL staining carried out as described (Wride, 1994). Briefly, microscope slides were incubated for 15 min in 2×SSC buffer at 60° C., washed in DDW and incubated with 20 μg/ml proteinase K (Boehringer Mannheim) for 15 min at room temperature. After a wash with DDW, endogenous peroxidases were inactivated by incubating the slides with 2% H2 O2 in PBST (PBS with 0.05% Tween 20) for 10 min at room temperature. Slides were then incubated in TdT buffer (Boehringer Mannheim) for 5 min at room temperature, and a reaction mixture containing 5×TdT buffer and 1 μl biotin-21-dUTP (Clontech, 1 mM stock) and 8 units of the TdT enzyme (Boehringer Mannheim) in total volume of 50 μl was subsequently added. The reactions were carried out at 37° C. for 1.5 hr in a humid chamber. The slides were washed in 2×SSC, DDW and finally with PBS and covered with 10% skim milk in PBST for 15 min. […]

[6] = test system: kidney, liver, stomach, lungs and spleen; test: Pathological and histological examination of tissues of treated animals; format: in vivo, mice
Procedure: C6 rat glioma cells (10^6) were injected subcutaneously into the back of the neck of CD1 nude male mice. After 3 days, 1 ml of aqueous solutions with or without 0.1-0.5 mM disulfiram (25-120 μg) was introduced per os to the mice using a feeding needle. Mice were orally fed three times per week. Tumors were removed 30 days following C6 cells injection, weighed, fixed in buffered formalin and histological sections were prepared. Each experimental group included 8 animals, and experiments were repeated twice.
Since disulfiram inhibits angiogenesis both in vivo in mice and in vitro in C6 glioma cells, it can be assumed that tumor growth inhibition observed for disulfiram is the result of its dual action, one on the neovascularization of the tumor and one on the C6 glioma cells. […] Blood vessels examined in these tissues were also not affected.

[7] = test system: aldehyde dehydrogenases; settings: cited from earlier work
[8] = ingested or injected intraperitoneally; cited from earlier work

In the case of CCN(CC)C(=S)SSC(=S)N(CC)CC [disulfiram, Bis(diethylthiocarbamoyl) disulfide], the “maximal inhibitory concentration relative to endothelial cells, fold higher” value ([1]; BALB/MK vs endothelial cells (0.2-0.5 μM)) is reported as 10 fold, the “persistence of inhibitory effect after short exposure” value ([1]; MK, 24 hours following short exposure) is reported as “inhibitory effect seemed to be maintained” and the IC (maximal) ([1]; BALB/MK keratinocytes, read-out: concentration of maximal inhibitory activity (DNA synthesis)) is reported as 2 to 3 µM. For the same compound, the IC (maximal) ([1]; BALB/MK, 1 to 4 hours of exposure, washed, read-out: concentration inducing maximal inhibitory effect on DNA synthesis, short exposure) was 5 µM, the “apoptosis by FACS” value [2] was “did not exhibit induction of apoptosis” and the cell rounding [3] was “did not change their shape to the rounded form”. For the same compound, the cell rounding [4] was “did not change their shape to the rounded form”, the “apoptosis by TUNEL method” value [5] was “not labeled; also recorded: did not induce” and the “effect on blood vessels in tissues” value [6] was “not affected”. For the same compound, the “pathological effect on tissues” value [6] was “no effect on these tissues”, the “inhibition of aldehyde dehydrogenases” value [7] was “inhibit” and the “distribution throughout the body” value [8] was “extensively distributed throughout the body including the brain”.
